Assay results taken from patent US20240376163A1, “PEPTIDE FOR INHIBITING CALCINEURIN AND USE THEREOF” (Seoul National University R&DB Foundation, priority 2023, published 2024).

Tested on: Jurkat T cells
Assay: mRNA sequencing of activated Jurkat T cells
Format: cell-based, human
Details: P+I

## C=CC[C@@H]1/C=C(\C)C[C@H](C)C[C@H](OC)[C@H]2O[C@@](O)(C(=O)C(=O)N3CCCC[C@H]3C(=O)O[C@H](/C(C)=C/[C@@H]3CC[C@@H](O)[C@H](OC)C3)[C@H](C)[C@@H](O)CC1=O)[C@H](C)C[C@@H]2OC [FK506, Tacrolimus, reference compound]
  ARHGEF6 FPKM: 35.366 FPKM
  ASAP1 FPKM: 7.765 FPKM
  ATG14 FPKM: 7.863 FPKM
  ATP2B4 FPKM: 16.449 FPKM
  ATXN1 FPKM: 1.798 FPKM
  BACH2 FPKM: 29.7 FPKM
  BAI2 FPKM: 1.395 FPKM
  BAIAP2-AS1 FPKM: 2.72 FPKM
  BATF3 FPKM: 36.514 FPKM
  BHLHE40 FPKM: 6.563 FPKM
  BTG1 FPKM: 22.099 FPKM
  C1QL1 FPKM: 1.444 FPKM
  C1orf233 FPKM: 0.79 FPKM
  C3 FPKM: 0.489 FPKM
  C9orf9 FPKM: 7.304 FPKM
  C10orf54 FPKM: 0.382 FPKM
  C16orf46 FPKM: 2.655 FPKM
  CASC15 FPKM: 4.027 FPKM
  CBX4 FPKM: 12.478 FPKM
  CBX6 FPKM: 42.006 FPKM
  CCDC64 FPKM: 10.044 FPKM
  CCDC71L FPKM: 13.763 FPKM
  CCL1 FPKM: 0 FPKM
  CCL3L1 FPKM: 0 FPKM
  CCL4 FPKM: 0 FPKM
  CCL4L1 FPKM: 0.087 FPKM
  CCL4L2 FPKM: 0.087 FPKM
  CCND2 FPKM: 0.558 FPKM
  CD1A FPKM: 4.589 FPKM
  CD1C FPKM: 3.288 FPKM
  CD1D FPKM: 2.553 FPKM
  CD27-AS1 FPKM: 5.11 FPKM
  CD27 FPKM: 3.098 FPKM
  CD55 FPKM: 6.015 FPKM
  CD69 FPKM: 125.597 FPKM
  CD83 FPKM: 35.907 FPKM
  CDCA7 FPKM: 26.911 FPKM
  CDT1 FPKM: 11.013 FPKM
  CFD FPKM: 0.937 FPKM
  CHI3L2 FPKM: 58.214 FPKM
  CHRNA9 FPKM: 4.046 FPKM
  CLEC2B FPKM: 60.911 FPKM
  CNR2 FPKM: 0.674 FPKM
  CORO2A FPKM: 1.862 FPKM
  CRIM1 FPKM: 0.305 FPKM
  CRTAM FPKM: 3.325 FPKM
  CSRNP1 FPKM: 26.052 FPKM
  CST7 FPKM: 2.338 FPKM
  CTDSPL FPKM: 1.758 FPKM
  CTTN FPKM: 11.037 FPKM
  CXCL3 FPKM: 3.147 FPKM
  CXCL9 FPKM: 0.839 FPKM
  CXCL10 FPKM: 0.352 FPKM
  CXCR3 FPKM: 0.503 FPKM
  CYB5RL FPKM: 1.807 FPKM
  DFNA5 FPKM: 12.016 FPKM
  DHFR FPKM: 7.656 FPKM
  DNAJB11 FPKM: 107.644 FPKM
  DNAJC1 FPKM: 13.765 FPKM
  DNPEP FPKM: 31.154 FPKM
  DOK2 FPKM: 27.372 FPKM
  DPY19L2P2 FPKM: 2.937 FPKM
  DPYSL2 FPKM: 11 FPKM
  DTX3L FPKM: 48.022 FPKM
  DUSP2 FPKM: 123.613 FPKM
  DUSP5 FPKM: 116.404 FPKM
  E2F1 FPKM: 7.783 FPKM
  E2F2 FPKM: 3.317 FPKM
  EIF2AK3 FPKM: 9.332 FPKM
  ENC1 FPKM: 9.299 FPKM
  ENHO FPKM: 1.746 FPKM
  ENPP1 FPKM: 124.248 FPKM
  EPAS1 FPKM: 5.846 FPKM
  EPHA3 FPKM: 2.019 FPKM
  ERO1LB FPKM: 5.101 FPKM
  ETV5 FPKM: 15.576 FPKM
  EVI2A FPKM: 15.078 FPKM
  FAM46C FPKM: 5.191 FPKM
  FAM111B FPKM: 5.291 FPKM
  FASLG FPKM: 1.518 FPKM
  FBXO34 FPKM: 14.612 FPKM
  FMNL2 FPKM: 2.726 FPKM
  FOS FPKM: 7.329 FPKM
  FOXO1 FPKM: 1.77 FPKM
  FST FPKM: 2.244 FPKM
  FURIN FPKM: 23.264 FPKM
  FYB FPKM: 11.107 FPKM
  GAMT FPKM: 10.915 FPKM
  GBP1 FPKM: 70.024 FPKM
  GBP2 FPKM: 27.591 FPKM
  GBP3 FPKM: 69.945 FPKM
  GBP4 FPKM: 4.384 FPKM
  GBP5 FPKM: 197.514 FPKM
  GDPD5 FPKM: 29.626 FPKM
  GEM FPKM: 2.495 FPKM
  GINS2 FPKM: 16.935 FPKM
  GLIPR2 FPKM: 15.84 FPKM
  GNAQ FPKM: 21.057 FPKM
  GNG2 FPKM: 25.67 FPKM
  GPR3 FPKM: 7.96 FPKM
